# Patent US8383637B2, “2-amino-quinazoline derivatives useful as inhibitors of β-secretase (BACE)” (Jansssen Pharmaceutica N.V., priority 2004, dated 2013)
# Target: T1, β-secretase(BACE) (Homo sapiens, UniProt P56817)
# T1 construct: purchased Panvera
# Experiment: BACE FS1% Inhibition Assay
# Assay type: biochemical
# Details: FS1 substrate
# Protocol: BACE FS1% Inhibition Assay The following reagents were used in this assay: sodium acetate, PEG8000 (Sigma), DMSO, HEPES, FS1 substrate [[…]] […] The FS1-substrate stock solution was prepared in DMSO as a 10 mg/mL solution. The FS1-substrate working solution was prepared by diluting the 10 mg/mL stock solution with substrate assay buffer to a final concentration of 300 μg/mL. The β-secretase (BACE) working solution was prepared by diluting a 0.83 mg/mL BACE stock solution with enzyme assay buffer to a final concentration of 4 μg/mL. Test compounds were dissolved in DMSO to 10 mM. […] The screening procedure for this assay was as follows: 15 μL of BACE working solution was pipetted into each well of a 96-well plate. To each well was then pipetted 2 μL of test compound at the selected concentration. Test compound and BACE were then mixed with a pipettor and incubated for 20 min at room temperature. To each well was then added 10 μL of the FS1 substrate working solution. The plates were then incubated for 1 hour at room temperature. […] The procedure for the blank was as follows. 15 μL of assay buffer was pipetted into each well to be used as a blank control. To each well was then added 2 μL of vehicle and 10 μL of FS1-substrate working solution. The plates were then incubated for 1 hour at room temperature. […] The procedure for the positive control was as follows: 15 μL of BACE working solution was pipetted into each well to be used as a positive control. To each well was then pipetted 2 μL of vehicle. Vehicle and BACE were then mixed with a pipettor and incubated for 20 min at room temperature. To each well was then added 10 μL of the FS1 substrate working solution. The plates were then incubated for 1 hour at room temperature. […] For test compounds, % inhibition was determined at each concentration as follows: [formula]
# T1 sequence (P56817 46-501): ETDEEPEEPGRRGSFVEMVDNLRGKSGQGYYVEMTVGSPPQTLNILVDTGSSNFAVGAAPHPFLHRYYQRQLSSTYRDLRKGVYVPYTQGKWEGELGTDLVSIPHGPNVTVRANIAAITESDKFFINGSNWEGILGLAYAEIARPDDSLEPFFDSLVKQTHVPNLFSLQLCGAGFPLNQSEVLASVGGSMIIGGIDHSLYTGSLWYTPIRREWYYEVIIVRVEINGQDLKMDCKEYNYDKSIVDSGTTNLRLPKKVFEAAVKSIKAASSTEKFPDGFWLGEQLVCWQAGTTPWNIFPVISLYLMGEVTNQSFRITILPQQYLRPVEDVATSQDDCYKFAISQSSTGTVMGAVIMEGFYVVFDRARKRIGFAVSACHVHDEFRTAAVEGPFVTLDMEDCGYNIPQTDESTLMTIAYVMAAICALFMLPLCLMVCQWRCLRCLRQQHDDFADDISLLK
% Inhibition (FS) 0.3 μM (0.3 μM test compound) [%],% Inhibition (FS) 1 μM (1 μM test compound) [%],% Inhibition (FS) 3 μM (3 μM test compound) [%],"inhibition at 0.3 µM (0.3 μM test compound, read-out: % Inhibition (FS) 0.3 μM) [%]","inhibition at 1 µM (1 μM test compound, read-out: % Inhibition (FS) 1 μM) [%]","inhibition at 3 µM (3 μM test compound, read-out: % Inhibition (FS) 3 μM) [%]",Compound
<30,35,79,–,–,–,CN(C(=O)c1cccc(CN2Cc3cc(-c4ccccc4Oc4ccccc4)ccc3N=C2N)c1)C1CCCCC1 [Compound 326]
<30,<30,<30,–,–,–,CC(c1ccccc1)c1ccc2c(c1)CN(Cc1cccc(C(=O)N(C)C3CCCCC3)c1)C(N)=N2 (stereo not drawn) [Compound 332]
–,–,–,< 30,< 30,94,"NC1=Nc2ccc(Oc3ccccc3)cc2CN1C(CC(=O)NC1CC2CCC1C2)C1CCCCC1 (stereo not drawn) [Compound 400, 3-(2-Amino-6-phenoxy-4H-quinazolin-3-yl)-N-bicyclo[2.2.1]hept-2-yl-3-cyclohexyl-propionamide]"
<30,<30,52,–,–,–,CC(C)C(CC(=O)NC1CCCCC1)N1Cc2cc(Oc3ccccc3)ccc2N=C1N (stereo not drawn) [Compound 401]
<30,53,99,–,–,–,CC(C)C(CC(=O)NC1C2CC3CC(C2)CC1C3)N1Cc2cc(Oc3ccccc3)ccc2N=C1N (stereo not drawn) [Compound 402]
<30,<30,66,–,–,–,NC1=Nc2ccc(Oc3ccccc3)cc2CN1CCCNC1CCCCC1 [Compound 403]
<30,<30,53,–,–,–,CN(C(=O)CCC(c1ccc(-c2ccccc2)cc1)N1Cc2cc(Oc3ccccc3)ccc2N=C1N)C1CCCCC1 (stereo not drawn) [Compound 420]
<30,26,62,–,–,–,NC1=Nc2ccc(Oc3ccccc3)cc2CN1CCNCC1CCCCC1 [Compound 427]
<30,<30,<30,–,–,–,CN(CCN1Cc2cc(Oc3ccccc3)ccc2N=C1N)C1CCCCC1 [Compound 429]
<30,33,88,–,–,–,COc1cccc(Nc2ccc3c(c2)CN(Cc2cccc(C(=O)N(C)C4CCCCC4)c2)C(N)=N3)c1 [Compound 433]
<30,35,72,–,–,–,CCOc1cccc(Nc2ccc3c(c2)CN(Cc2cccc(C(=O)N(C)C4CCCCC4)c2)C(N)=N3)c1 [Compound 440]

# Second part, the compound before the results:
Compound,% Inhibition (FS) 0.3 μM (0.3 μM test compound) [%],% Inhibition (FS) 1 μM (1 μM test compound) [%],% Inhibition (FS) 3 μM (3 μM test compound) [%],"inhibition at 0.3 µM (0.3 μM test compound, read-out: % Inhibition (FS) 0.3 μM) [%]","inhibition at 1 µM (1 μM test compound, read-out: % Inhibition (FS) 1 μM) [%]","inhibition at 3 µM (3 μM test compound, read-out: % Inhibition (FS) 3 μM) [%]"
CSc1ccccc1-c1ccc2c(c1)CN(Cc1cccc(C(=O)N(C)C3CCCCC3)c1)C(N)=N2 [Compound 322],<30,<30,95,–,–,–
CC(=O)c1ccccc1-c1ccc2c(c1)CN(Cc1cccc(C(=O)N(C)C3CCCCC3)c1)C(N)=N2 [Compound 323],<30,<30,45,–,–,–
CN(C(=O)c1cccc(CN2Cc3cc(-c4ccccc4OCc4ccccc4)ccc3N=C2N)c1)C1CCCCC1 [Compound 327],<30,<30,48,–,–,–
Cc1cccc(Sc2ccc3c(c2)CN(Cc2cccc(C(=O)N(C)C4CCCCC4)c2)C(N)=N3)c1 [Compound 405],43,106,118,–,–,–
CCc1ccccc1Sc1ccc2c(c1)CN(Cc1cccc(C(=O)N(C)C3CCCCC3)c1)C(N)=N2 [Compound 406],<30,<30,50,–,–,–
CC(C)c1ccc(Sc2ccc3c(c2)CN(Cc2cccc(C(=O)N(C)C4CCCCC4)c2)C(N)=N3)cc1 [Compound 407],<30,<30,48,–,–,–
Cc1ccc(Sc2ccc3c(c2)CN(Cc2cccc(C(=O)N(C)C4CCCCC4)c2)C(N)=N3)cc1C [Compound 408],<30,34,95,–,–,–
Cc1cc(C)cc(Sc2ccc3c(c2)CN(Cc2cccc(C(=O)N(C)C4CCCCC4)c2)C(N)=N3)c1 [Compound 409],<30,<30,72,–,–,–
COc1ccc(Sc2ccc3c(c2)CN(Cc2cccc(C(=O)N(C)C4CCCCC4)c2)C(N)=N3)cc1 [Compound 410],<30,39,50,–,–,–
COc1ccc(Sc2ccc3c(c2)CN(Cc2cccc(C(=O)N(C)C4CCCCC4)c2)C(N)=N3)cc1OC [Compound 411],<30,<30,55,–,–,–
COc1ccccc1Sc1ccc2c(c1)CN(Cc1cccc(C(=O)N(C)C3CCCCC3)c1)C(N)=N2 [Compound 412],<30,<30,49,–,–,–
CSc1ccc(Sc2ccc3c(c2)CN(Cc2cccc(C(=O)N(C)C4CCCCC4)c2)C(N)=N3)cc1 [Compound 413],<30,<30,53,–,–,–
CN(C(=O)c1cccc(CN2Cc3cc(Sc4cccc5ccccc45)ccc3N=C2N)c1)C1CCCCC1 [Compound 414],<30,<30,27,–,–,–
CN(C(=O)c1cccc(CN2Cc3cc(Sc4ccc5ccccc5c4)ccc3N=C2N)c1)C1CCCCC1 [Compound 415],<30,<30,63,–,–,–
CNC(=O)c1ccccc1Sc1ccc2c(c1)CN(Cc1cccc(C(=O)N(C)C3CCCCC3)c1)C(N)=N2 [Compound 416],<30,<30,−3,–,–,–
CC(=O)Nc1ccc(Sc2ccc3c(c2)CN(Cc2cccc(C(=O)N(C)C4CCCCC4)c2)C(N)=N3)cc1 [Compound 417],<30,<30,78,–,–,–
COc1ccc(Nc2ccc3c(c2)CN(Cc2cccc(C(=O)N(C)C4CCCCC4)c2)C(N)=N3)cc1 [Compound 434],<30,<30,<30,–,–,–
Cc1cccc(Nc2ccc3c(c2)CN(Cc2cccc(C(=O)N(C)C4CCCCC4)c2)C(N)=N3)c1 [Compound 435],<30,<30,85,–,–,–
CN(C(=O)c1cccc(CN2Cc3cc(Nc4ccc5ccccc5c4)ccc3N=C2N)c1)C1CCCCC1 [Compound 436],<30,37,50,–,–,–
CN(C(=O)c1cccc(CN2Cc3cc(Nc4ccc(C5CCCCC5)cc4)ccc3N=C2N)c1)C1CCCCC1 [Compound 437],<30,<30,38,–,–,–
CN(C)c1ccc(Nc2ccc3c(c2)CN(Cc2cccc(C(=O)N(C)C4CCCCC4)c2)C(N)=N3)cc1 [Compound 438],<30,<30,<30,–,–,–
CN(C(=O)c1cccc(CN2Cc3cc(Nc4ccc(N5CCOCC5)cc4)ccc3N=C2N)c1)C1CCCCC1 [Compound 439],<30,<30,<30,–,–,–
